These results are taken from patent publication US5891912A, “1,3-dialkylurea derivatives having a hydroxyl group” (Santen Pharmaceutical Co., Ltd., priority 1994, dated 1999).

In the assay the target is T1, endopeptidase 24.11 (Rattus norvegicus, UniProt P07861).
T1 construct: was prepared by extracting from a rat kidney; from tissue; host or cells: Wistar rat kidney, homogenate pellet after ultracentrifugation (crude membrane preparation)
T1 sequence (P07861 1-750): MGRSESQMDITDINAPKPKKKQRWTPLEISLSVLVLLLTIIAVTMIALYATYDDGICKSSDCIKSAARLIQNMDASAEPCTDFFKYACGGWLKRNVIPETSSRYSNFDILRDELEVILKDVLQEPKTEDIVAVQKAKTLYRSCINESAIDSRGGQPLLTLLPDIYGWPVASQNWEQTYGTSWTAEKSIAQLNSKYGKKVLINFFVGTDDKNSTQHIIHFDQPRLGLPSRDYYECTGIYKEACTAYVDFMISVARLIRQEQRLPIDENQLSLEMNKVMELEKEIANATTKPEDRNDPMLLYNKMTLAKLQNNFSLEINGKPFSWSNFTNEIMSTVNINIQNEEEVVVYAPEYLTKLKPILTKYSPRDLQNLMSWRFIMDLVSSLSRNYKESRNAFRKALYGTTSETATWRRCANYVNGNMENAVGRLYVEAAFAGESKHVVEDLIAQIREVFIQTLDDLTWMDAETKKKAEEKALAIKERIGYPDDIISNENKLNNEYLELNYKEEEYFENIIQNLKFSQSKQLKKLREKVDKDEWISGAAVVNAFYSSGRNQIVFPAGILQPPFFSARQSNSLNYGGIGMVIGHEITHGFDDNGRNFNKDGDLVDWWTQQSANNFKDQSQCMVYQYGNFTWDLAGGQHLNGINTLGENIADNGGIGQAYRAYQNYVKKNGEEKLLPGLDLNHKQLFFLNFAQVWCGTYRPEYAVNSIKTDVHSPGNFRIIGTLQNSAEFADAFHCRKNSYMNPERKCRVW
Kind of assay: inhibition of endopeptidase 24.11 activity (cleavage of N-dansyl-D-alanyl-glycyl-p-nitrophenylalanyl-glycine, DAGNPG; rat kidney enzyme preparation). The format is biochemical, Wistar rat. The settings on record: DAGNPG 50 μM, pH 7.4, 37° C., 30 minutes, read-out: IC50 (concentration required to inhibit endopeptidase 24.11 by 50%). An excerpt:
As a method for measuring an endopeptidase 24.11 activity, Florentin et al. had reported a method for measuring the enzyme activity by a degree of cleavage of a peptide bond between glycine and p-nitrophenylalanine using N-dansyl-D-alanyl-glycyl-p-nitrophenylalanyl-glycine (DAGNPG) as a substrate (Anal. Biochem., 141, 62-69 (1984)). An effect of the compounds of the invention on endopeptidase 24.11 was examined according to the method described in the literature.
An enzyme preparation used in this pharmacological test was prepared by extracting from a rat kidney by the following method according to the method of Malfloy et al. (J. Biol. Chem., 259, 14365-14370 (1984)).
A kidney was excised from a Wistar rat. The kidney was homogenized in Tris-hydrochloric acid buffer (5 mM, pH 7.4, containing 125 mM D-mannitol and 12 mM magnesium chloride). The homogenate was centrifuged at low speed (1,000×g) to give a supernatant. The supernatant was ultracentrifuged ([…]) for 120 minutes. The resulting pellet was suspended in Tris-hydrochloric acid buffer (2.5 mM, pH 7.4, containing 62.5 mM D-mannitol and 6 mM magnesium chloride). The suspension was centrifuged at low speed and then ultracentrifuged again. The resulting pellet was suspended in HEPES buffer (5 mM, pH 7.4) to give the enzyme preparation.
In order to examine the effect of the compounds of the invention on the enzyme preparation, reactions were performed under the following condition using mixed solutions consisting of the composition shown in Table 1. […]
______________________________________
Enzyme preparation 0.3-0.5 μg protein
The above-mentioned solution (150 μl) was incubated at 37° C. for 30 minutes and then boiled at 100° C. for 5 minutes. To the solution was added 1.35 ml of Tris-hydrochloric acid buffer (50 mM, pH 7.4). The mixture was centrifuged at moderate speed (5,000×g) for 5 minutes to give a supernatant. Fluorescence intensity of the supernatant (excitation at 342 nm of wave length and emission at 562 nm) was measured.
The degree of the inhibitory effect of each test compound on the enzyme preparation was expressed by the inhibition rate calculated by the following equation. [formula]
A: fluorescence intensity of the sample in the absence of the test compound
B: fluorescence intensity of the sample in the presence of the test compound
Consider `CC(C)CN(CC(O)C(=O)O)C(=O)N[C@@H](Cc1ccccc1)C(=O)O` (mixture of isomers) [Compound No. 2-1, (2S)-2-[3-[(2RS)-2-Carboxy-2-hydroxyethyl]-3-isobutylureido]-3-phenylpropionic acid], for which the IC50 came out at 5.4 nM. To `CC(C)CN(CC(O)C(=O)O)C(=O)N[C@@H](Cc1ccc(-c2ccccc2)cc1)C(=O)O` (mixture of isomers) [Compound No. 3-1, (2S)-3-(4-Biphenylyl)-2-[3-[(2RS)-2-carboxy-2-hydroxyethyl]-3-isobutylureido]propionic acid] belongs 1.1 nM; to `CC(C)CN(CC(O)C(=O)O)C(=O)N[C@@H](Cc1ccc(-c2ccc(F)cc2)cc1)C(=O)O` (mixture of isomers) [Compound No. 3-2, (2S)-2-[3-[(2RS)-2-Carboxy-2-hydroxyethyl]-3-isobutylureido]-3-[4-(4-fluorophenyl)phenyl]propionic acid], 3.1 nM; to `CC(C)CN(CC(O)C(=O)O)C(=O)N[C@H](C(=O)O)c1ccccc1` (mixture of isomers) [Compound No. 3-4, (2RS)-3-[3-[(S)-α-Carboxybenzyl]-1-isobutylureido]-2-hydroxypropionicacid], 65 nM. To `CC(C)CN(C[C@H](O)C(=O)NO)C(=O)N[C@@H](Cc1ccccc1)C(=O)O` [Compound No. 8-1, (2S)-2-[3-[(2S)-2-Hydroxy-2-hydroxycarbamoylethyl]-3-isobutylureido]-3-phenylpropionic acid] belongs 0.32 nM; to `CC(C)CN(C[C@H](O)C(=O)O)C(=O)N[C@@H](Cc1ccc(-c2ccccc2)cc1)C(=O)O` [Compound No. 8-2, (2S)-3-(4-Biphenylyl)-2-[3-[(2S)-2-carboxy-2-hydroxyethyl]-3-isobutylureido]propionic acid], 0.95 nM; to `CC(C)CN(C[C@@H](O)C(=O)O)C(=O)N[C@@H](Cc1ccc(-c2ccccc2)cc1)C(=O)O` [Compound No. 8-3, (2S)-3-(4-Biphenylyl)-2-[3-[(2R)-2-carboxy-2-hydroxyethyl]-3-isobutylureido]propionic acid], 2.1 nM. To `CC(C)CN(C[C@H](O)C(=O)NO)C(=O)N[C@@H](Cc1ccc(-c2ccccc2)cc1)C(=O)O` [Compound No. 8-9, (2S)-3-(4-Biphenylyl)-2-[3-[(2S)-2-hydroxy-2-hydroxycarbamoylethyl]-3-isobutylureido]propionic acid] belongs 0.16 nM; to `CC(C)CN(C[C@H](O)C(=O)NO)C(=O)N[C@@H](Cc1ccc2ccccc2c1)C(=O)O` [Compound No. 9-1, (2S)-2-[3-[(2S)-2-Hydroxy-2-hydroxycarbamoylethyl]-3-isobutylureido]-3-(2-naphthyl)propionic acid], 0.27 nM.
